Measurements published in patent US20260034125A1, “N-PHENYL-1-(PHENYLSULFONYL)PIPERIDIN-4-AMINE DERIVATIVES AS CCR6 INHIBITORS” (priority 2023, published 2026).

Assays:
Format in all cases: cell-based
[1] = target: T1, human CCR6 (Homo sapiens, UniProt P51684); test: CHO-K1 CCR6 chemotaxis assay towards CCL20; details: relative -LogIC50; CHO-K1 cells overexpressing human CCR6, 100 ng/ml CCL20, Transwell, 4 h
T1 sequence (P51684 1-374): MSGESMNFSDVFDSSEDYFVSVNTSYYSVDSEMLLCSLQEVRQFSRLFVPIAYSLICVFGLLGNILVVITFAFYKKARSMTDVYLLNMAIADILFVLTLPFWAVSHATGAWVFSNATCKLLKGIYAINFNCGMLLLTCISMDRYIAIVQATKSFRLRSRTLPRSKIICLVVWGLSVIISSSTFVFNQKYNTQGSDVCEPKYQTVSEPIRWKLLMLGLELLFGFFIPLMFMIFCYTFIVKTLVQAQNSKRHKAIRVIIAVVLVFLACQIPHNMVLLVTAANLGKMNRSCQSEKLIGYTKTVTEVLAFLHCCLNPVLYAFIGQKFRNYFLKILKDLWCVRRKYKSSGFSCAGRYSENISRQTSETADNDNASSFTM
Excerpt: Cells overexpressing human CCR6 were used in the chemotaxis assay (DiscoverX, CAMP Hunter™ CHO-K1 CCR6 Gi Cell Line). Growth medium of these cells consisted of DMEM/F12, non-essential Amino acids (1×NEAA, Gibco 11140050), 10% FBS and 1× pen/strep (Gibco 15140). For the chemotaxis assay, Corning Transwell plates were used with a pore size of 8 μm (Corning 351164). Cells were harvested using trypsin and diluted to 4*10^6 cells/ml in chemotaxis medium (DMEM, 0.25% BSA, pen/strep). Compounds were four-fold serially diluted in DMSO. Further dilutions were made in chemotaxis medium. Cells were incubated with test compounds for 30 min at 37° C. prior to initiation of the assay (2*10^6 cells/ml). Final DMSO concentration in the assay was 0.2%. Wells of the Transwell plates were filled with 200 μl chemotaxis medium containing 100 ng/ml CCL20 (R&D systems 360-MP). 50 μl of the cell/compound suspension was added to the inserts of the Transwell plates (100,000 cells/insert). The Transwell plates were placed in an incubator at 37° C., 5% CO2 for 4 h. After 4 h, the number of migrated cells was quantified using CellTiter Glo (Promega). Percentage inhibition values were calculated based on the low and high signal obtained with 0.2% DMSO in chemotaxis medium without and with CCL20, respectively. The relative-LogIC50 was determined with GraphPad Prism 9 using a four-parameter dose-response model.

[2] = system: Human CD4+ T cells; test: CD4+ T cell chemotaxis assay towards CCL20; details: relative -LogIC50, 150 ng/ml CCL20, Transwell, 3 h
Excerpt: Human CD4+ T cells were isolated from buffy coats of healthy donors using a CD4+ T Cell Isolation Kit (Miltenyi Biotec130-096-533). Isolated T cells were stimulated overnight with anti-CD3 and anti-CD28 antibodies (Biolegend 300314/302934) in growth medium (RPMI1640, 10% heat-inactivated FBS, 1× pen/strep (Gibco 15140)). For the chemotaxis assay, Corning Transwell plates were used with a pore size of 5 μm (Corning 3388). T cells were counted and diluted to 6*10^6 cells/ml in chemotaxis medium (RPMI1640, 1% BSA, pen/strep). Compounds were four-fold serially diluted in DMSO. Further dilutions were made in chemotaxis medium. Cells were incubated with test compounds for 30 min at 37° C. prior to initiation of the assay (3*10^6 cells/ml). Final DMSO concentration in the assay was 0.2%. Wells of the Transwell plates were filled with 200 μl chemotaxis medium containing 150 ng/ml CCL20 (R&D systems 360-MP). 50 μl of the cell/compound suspension was added to the inserts of the Transwell plates (150,000 cells/insert). The Transwell plates were placed in an incubator at 37° C., 5% CO2 for 3 h. After 3 h, the number of migrated cells was quantified using CellTiter Glo (Promega). Percentage inhibition values were calculated based on the low and high signal obtained with 0.2% DMSO in chemotaxis medium without and with CCL20, respectively. The relative −LogIC50 was determined with GraphPad Prism 9 using a four-parameter dose-response model.

[3] = target: T1, human CCR6; test: Human CCR6-Cre reporter assay; parameters: The second construct contained the open reading frame of human CCR6 in the pUNO1 backbone; host or cells: 293 FT cells; details: relative -LogIC50; transfected 293 FT cells, 6 μM Forskolin, 6 nM CCL20, luciferase readout, 5h
Experimental: 293 FT cells were transfected with 2 constructs using TransIT-293 (Mirus). The first construct (pGL4.29, Promega) expressed the luciferase reporter gene luc2P in response to the binding of cAMP-induced CREB to the CRE element in its promoter. The second construct contained the open reading frame of human CCR6 in the pUNO1 backbone under the control of an enhanced CMV promoter (In VivoGen). 48h after transfection, cells were harvested and diluted to 750,000 cells/ml in culture medium (DMEM, 10% FBS, 1× pen/strep (Gibco 15140)). Compounds were 2.5-fold serially diluted in DMSO. Further dilutions were made in assay medium (DMEM, 10% FBS, 1× pen/strep, 6 μM Forskolin, 6 nM CCL20). 4 μl of the compound solution was added to a white MW384 plate, followed by 20 μl of the cell suspension. Final DMSO concentration in the assay was 0.1%. The MW384 plate was placed in an incubator at 37° C., 5% CO2 for 5h. Luciferase activity was determined by addition of 24 μl of a 2.5× diluted BriteLite luciferase solution (Perkin Elmer), followed by luminescence measurement using a VICTOR Plate reader (Perkin Elmer). […] The relative-LogIC50 was determined with GraphPad Prism 9 using a four-parameter dose-response model.

Compound	IC50 [1] [µM]	IC50 [2] [µM]	IC50 [3] [µM]
CC(C)c1nnc2ccc(-c3ccc(S(=O)(=O)N4CCC(Nc5ccc(C6(C(F)(F)F)CC6)cc5)CC4)cc3)cn12 [Example 40, 1-{4-[3-(propan-2-yl)-[1,2,4]triazolo[4,3-a]pyridin-6-yl]benzenesulfonyl}-N-{4-[1-(trifluoromethyl)cyclopropyl]phenyl}piperidin-4-amine]	0.0158	0.000631	0.0501
NC(=O)c1cc(-c2ccc(S(=O)(=O)N3CCC(Nc4ccc(C5(C(F)(F)F)CC5)cn4)CC3)cc2)ccn1 [Example 45, 4-(4-{[4-({5-[1-(trifluoromethyl)cyclopropyl]pyridin-2-yl}amino)piperidin-1-yl]sulfonyl}phenyl)pyridine-2-carboxamide]	0.02	0.00794	0.0316
N#Cc1c[nH]c2ccc(-c3ccc(S(=O)(=O)[C@H]4CC[C@H](Nc5ccc(C6COC6)cc5)CC4)cc3)cc12 [Example 19, 5-(4-{[trans-4-{[4-(oxetan-3-yl)phenyl]Amino}cyclohexyl]sulfonyl}phenyl)-1H-indole-3-carbonitrile]	0.251		0.0631
Cc1cc(-c2ccc(S(=O)(=O)N3CCC(Nc4ccc(C5(C(F)(F)F)CC5)cn4)CC3)cc2)cn2c(C(C)C)nnc12 [Example 46, N-(1-{4-[8-methyl-3-(propan-2-yl)-[1,2,4]triazolo[4,3-a]pyridin-6-yl]benzenesulfonyl}piperidin-4-yl)-5-[1-(trifluoromethyl)cyclopropyl]pyridin-2-amine]	0.0158	0.002	0.0631
O=S(=O)(c1ccc(-c2ccc3nnc(C(F)F)n3c2)cc1)N1CCC(Nc2ccc(C3(C(F)(F)F)CC3)cn2)CC1 [Example 44, N-(1-{4-[3-(difluoromethyl)-[1,2,4]triazolo[4,3-a]pyridin-6-yl]benzenesulfonyl}piperidin-4-yl)-5-[1-(trifluoromethyl)cyclopropyl]pyridin-2-amine]	0.00631	0.00631	0.0501
CNC(=O)c1ccc(-c2ccc(S(=O)(=O)N3CCC(Nc4ccc(C5(C(F)(F)F)CC5)cc4)CC3)cc2)cc1 [Example 5, N-methyl-4′-{[4-({4-[1-(trifluoromethyl)cyclopropyl]phenyl}Amino)piperidin-1-yl]sulfonyl}-[1,1′-biphenyl]-4-carboxamide]	0.158		0.158
N#Cc1c[nH]c2ccc(-c3ccc(S(=O)(=O)[C@H]4CC[C@H](Nc5ccc(C6(C(F)(F)F)CC6)cc5)CC4)cc3)cc12 [Example 16, 5-(4-{[trans-4-({4-[1-(trifluoromethyl)cyclopropyl]phenyl}Amino)cyclohexyl]sulfonyl}phenyl)-1H-indole-3-carbonitrile]	0.00501		0.02
CNC(=O)c1ccc(-c2ccc(S(=O)(=O)N3CCC(Nc4ccc(C5(C(F)(F)F)CC5)cc4)CC3)cc2)cn1 [Example 6, N-methyl-5-(4-{[4-({4-[1-(trifluoromethyl)cyclopropyl]phenyl}Amino)piperidin-1-yl]sulfonyl}phenyl)pyridine-2-carboxamide]	0.126		0.126
NC(=O)c1ccc(-c2ccc(S(=O)(=O)N3CCC(Nc4ccc(C5(C(F)(F)F)CC5)cc4)CC3)cc2)cc1 [Example 7, 4′-{[4-({4-[1-(trifluoromethyl)cyclopropyl]phenyl}Amino)piperidin-1-yl]sulfonyl}-[1,1′-biphenyl]-4-carboxamide]	0.126		0.2
